The term IC50 denotes the midpoint of a concentration-inhibition curve.

Bridge positions count the residues as written; N and C are the ends. Square brackets hold non-standard residues; d marks the D form. Peptide text beside a SMILES is read from it. * marks the point of attachment. ξ: configuration not given here. Phe(3-CF3) = N[C@@H](Cc1cccc(C(F)(F)F)c1)C(=O)O; Phe(4-COOH) = N[C@@H](Cc1ccc(C(=O)O)cc1)C(=O)O; Bip = N[C@@H](Cc1ccc(-c2ccccc2)cc1)C(=O)O; Phe(3-Me) = Cc1cccc(C[C@H](N)C(=O)O)c1; Abu(3S-NH2) = C[C@H](N)[C@H](N)C(=O)O; NH(CH2)12COOH = O=C(O)CCCCCCCCCCCCN*; Val(3-OH) = CC(C)(O)[C@H](N)C(=O)O; hArg = N=C(N)NCCCC[C@H](N)C(=O)O; Cha = N[C@@H](CC1CCCCC1)C(=O)O; Thr(3ξ) = CC(O)[C@H](N)C(=O)O; PEG4 = NCCOCCOCCOCCOCCC(=O)O; 12Ado = NCCCCCCCCCCCC(=O)O; hSer = N[C@@H](CCO)C(=O)O; Carboxymethyl = O=C(O)C*; Nle = CCCC[C@H](N)C(=O)O; Orn = NCCC[C@H](N)C(=O)O; Aun = NCCCCCCCCCCC(=O)O; Dab = NCC[C@H](N)C(=O)O; Dap = NC[C@H](N)C(=O)O; AEEA = NCCOCCOCC(=O)O; Propargyl = C#CC*

The target of the assay is T1, PD-1/PD-L1 interaction (PE-labeled human PD-L1-Ig binding to Jurkat cell line over-expressing human PD-1) (Homo sapiens, UniProt Q15116).
T1 construct: expressed in transfected cells; host or cells: Jurkat
T1 sequence (Q15116 25-288): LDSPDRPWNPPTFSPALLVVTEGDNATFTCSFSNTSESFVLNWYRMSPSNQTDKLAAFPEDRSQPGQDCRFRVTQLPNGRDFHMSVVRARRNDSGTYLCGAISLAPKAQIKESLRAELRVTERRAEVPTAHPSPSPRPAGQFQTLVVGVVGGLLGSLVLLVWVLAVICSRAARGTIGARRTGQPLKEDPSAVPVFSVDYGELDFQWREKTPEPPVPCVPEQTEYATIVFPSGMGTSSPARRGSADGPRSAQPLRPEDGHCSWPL
Nature of the assay: Jurkat-PD-1 Cell Binding High-Content Screening Assay (CBA). Format: cell-based. The settings on record: Jurkat cell line over-expressing human PD-1; PE-labeled PD-L1-Ig 20 nM final; read-out: Jurkat hPD1-PDL1 IC50. The method, boiled down: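 First, compound is added to PD-1-expressing Jurkat cells in serum-containing DMEM and left 2 h at 37° C. Next, PE-conjugated PD-L1-Ig is introduced at 20 nM final concentration for 1 hour. Finally, cells are fixed in 4% paraformaldehyde with Hoechst 33342, washed and imaged.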
For `Cc1cccc(C[C@@H]2NC(=O)[C@H](CC(=O)O)NC(=O)[C@H](Cc3ccc(OCC(=O)O)cc3)NC(=O)[C@H](C(C)O)NC(=O)CSC[C@@H](C(=O)N[C@H](CC(N)=O)C(=O)NCCOCCOCC(=O)NCCCCCCCCCCC(=O)O)NC(=O)[C@H](CO)NC(=O)[C@H](C(C)C)NC(=O)[C@H](CC3CCCCC3)NC(=O)[C@H](CCN)NC(=O)[C@@H](CC(C)C)NC(=O)[C@H](CCCN)NC(=O)[C@H](C(C)C)NC(=O)[C@H](Cc3ccc(-c4ccccc4)cc3)NC(=O)[C@H](C(C)C)NC2=O)c1` (stereo partly drawn) [Compound 3254] ({CH2CO}-[Thr(3ξ)]Y(Carboxymethyl)D[Phe(3-Me)]V[Bip]V[Orn][dL][Dab][Cha]VSC[dN][AEEA][Aun]-OH; thioether N-14), the IC50 was determined as 10.9 nM.

As for `Cc1cccc(C[C@@H]2NC(=O)[C@H](CC(=O)O)NC(=O)[C@H](Cc3ccc(OCC(=O)O)cc3)NC(=O)[C@H](CN)NC(=O)CSC[C@@H](C(=O)N[C@@H](CCN)C(=O)NCCCCCCCCCCC(=O)O)NC(=O)[C@H](CO)NC(=O)[C@H]([C@H](C)N)NC(=O)[C@H](CC3CCCCC3)NC(=O)[C@H](CCN)NC(=O)[C@@H](CC(C)C)NC(=O)[C@H](CCCN)NC(=O)[C@H](Cc3ccc(OCC(=O)O)cc3)NC(=O)[C@H](Cc3ccc(-c4ccccc4)cc3)NC(=O)[C@H](Cc3ccc(OCC(=O)O)cc3)NC2=O)c1` [Compound 2174] ({CH2CO}-[Dap]Y(Carboxymethyl)D[Phe(3-Me)]Y(Carboxymethyl)[Bip]Y(Carboxymethyl)[Orn][dL][Dab][Cha][Abu(3S-NH2)]SC[Dab][Aun]-OH; thioether N-14), the IC50 worked out at 11.3 nM.

For the compound `CC(C)C[C@H]1NC(=O)[C@H](CCCN)NC(=O)[C@H](C(C)C)NC(=O)[C@H](Cc2ccc(-c3ccccc3)cc2)NC(=O)[C@H](C(C)C)NC(=O)[C@H](Cc2c[nH]c3ccccc23)NC(=O)[C@H](CC(=O)O)NC(=O)[C@H](Cc2ccc(OCC(=O)O)cc2)NC(=O)[C@H](CCCCNC(=N)N)NC(=O)CSC[C@@H](C(=O)N[C@@H](C)C(=O)NCCOCCOCC(=O)N[C@@H](CCCN)C(=O)NCCCCCCCCCCC(=O)O)NC(=O)[C@H](C(C)O)NC(=O)[C@H](C(C)C)NC(=O)[C@H](CC2CCCCC2)NC(=O)[C@H](Cc2c[nH]cn2)NC1=O` (stereo partly drawn) [Compound 3032] ({CH2CO}-[hArg]Y(Carboxymethyl)DWV[Bip]V[Orn][dL]H[Cha]V[Thr(3ξ)]CA[AEEA][Orn][Aun]-OH; thioether N-14), the IC50 is 26.5 nM.

For the compound `C#CCOc1ccc(C[C@@H]2NC(=O)[C@H](C(C)C)NC(=O)[C@H](CC3CCCCC3)NC(=O)[C@H](CCN)NC(=O)[C@@H](CC(C)C)NC(=O)[C@H](CCCN)NC(=O)[C@H](Cc3ccc(OCC(=O)O)cc3)NC(=O)[C@H](Cc3ccc(-c4ccccc4)cc3)NC(=O)[C@H](Cc3ccc(OCC(=O)O)cc3)NC(=O)[C@H](Cc3cccc(C)c3)NC(=O)[C@H](CC(=O)O)NC(=O)[C@H](Cc3ccc(OCC(=O)O)cc3)NC(=O)[C@H](CN)NC(=O)CSC[C@@H](C(=O)N[C@@H](CCN)C(=O)NCCOCCOCC(=O)NCCCCCCCCCCC(=O)O)NC2=O)cc1` [Compound 1251] ({CH2CO}-[Dap]Y(Carboxymethyl)D[Phe(3-Me)]Y(Carboxymethyl)[Bip]Y(Carboxymethyl)[Orn][dL][Dab][Cha]VY(Propargyl)C[Dab][AEEA][Aun]-OH; thioether N-14), the IC50 is 38 nM.

For `Cc1cccc(C[C@@H]2NC(=O)[C@H](CC(=O)O)NC(=O)[C@H](Cc3ccc(OCC(=O)O)cc3)NC(=O)[C@H](Cc3ccc(OCC(=O)O)cc3)NC(=O)CSC[C@@H](C(=O)NCC(=O)N[C@@H](CCC(=O)O)C(=O)NCC(=O)NCCCCCCCCCCC(=O)O)NC(=O)[C@H](CO)NC(=O)[C@H](C(C)C)NC(=O)[C@H](CC(C)C)NC(=O)[C@H](CCN)NC(=O)[C@@H](CC(C)C)NC(=O)[C@H](CCCN)NC(=O)[C@H](C(C)C)NC(=O)[C@H](Cc3ccc(-c4ccccc4)cc3)NC(=O)[C@H](CC(C)C)NC2=O)c1` [Compound 1138] ({CH2CO}-Y(Carboxymethyl)Y(Carboxymethyl)D[Phe(3-Me)]L[Bip]V[Orn][dL][Dab]LVSCGEG[Aun]-OH; thioether N-14), the IC50 was determined as 18.9 nM.

Take `CC(C)C[C@H]1NC(=O)[C@H](CCCN)NC(=O)[C@H](C(C)C)NC(=O)[C@H](Cc2ccc(-c3ccccc3)cc2)NC(=O)[C@H](C(C)C)NC(=O)[C@H](Cc2c[nH]c3ccccc23)NC(=O)[C@H](CC(=O)O)NC(=O)[C@H](Cc2ccc(OCC(=O)O)cc2)NC(=O)[C@H](CCCCNC(=N)N)NC(=O)CSC[C@@H](C(=O)NCC(=O)NCCOCCOCC(=O)N[C@@H](CCCN)C(=O)NCCCCCCCCCCCC(=O)O)NC(=O)[C@H](CN)NC(=O)[C@H](C(C)C)NC(=O)[C@H](CC2CCCCC2)NC(=O)[C@H](CCN)NC1=O` [Compound 3173] ({CH2CO}-[hArg]Y(Carboxymethyl)DWV[Bip]V[Orn][dL][Dab][Cha]V[Dap]CG[AEEA][Orn][12Ado]-OH; thioether N-14): the IC50 worked out at 21.2 nM.

For the compound `Cc1cccc(C[C@@H]2NC(=O)[C@H](CC(=O)O)NC(=O)[C@H](Cc3ccc(OCC(=O)O)cc3)NC(=O)[C@H](CCCCNC(=N)N)NC(=O)CSC[C@@H](C(=O)N[C@@H](CCCN)C(=O)N[C@@H](CO)C(=O)NCCCCCCCCCCCC(=O)O)NC(=O)[C@H](C(C)O)NC(=O)[C@H](CCO)NC(=O)[C@H](CC3CCCCC3)NC(=O)[C@H](CCN)NC(=O)[C@@H](CC(C)C)NC(=O)[C@H](CCCN)NC(=O)[C@H](CCCNC(=N)N)NC(=O)[C@H](Cc3ccc(-c4ccccc4)cc3)NC(=O)[C@H](C(C)C)NC2=O)c1` (stereo partly drawn) [Compound 3574] ({CH2CO}-[hArg]Y(Carboxymethyl)D[Phe(3-Me)]V[Bip]R[Orn][dL][Dab][Cha][hSer][Thr(3ξ)]C[Orn]S[12Ado]-OH; thioether N-14), the IC50 came to 27 nM.

For the compound `CCCC[C@@H]1NC(=O)CSC[C@@H](C(=O)N[C@@H](CCN)C(=O)NCCOCCOCCOCCOCCC(=O)NCCCCCCCCCCCCC(=O)O)NC(=O)[C@H](CO)NC(=O)[C@H](C(C)(C)O)NC(=O)[C@H](CC2CCCCC2)NC(=O)[C@H](CCN)NC(=O)[C@@H](CC(C)C)NC(=O)[C@H](CCCN)NC(=O)[C@H](Cc2ccc(C(=O)O)cc2)NC(=O)[C@H](Cc2ccc(-c3ccccc3)cc2)NC(=O)[C@H](Cc2ccc(C(=O)O)cc2)NC(=O)[C@H](Cc2cccc(C(F)(F)F)c2)NC(=O)[C@H](CC(=O)O)NC(=O)[C@H](Cc2ccc(OCC(=O)O)cc2)NC1=O` [Compound 2911] ({CH2CO}-[Nle]Y(Carboxymethyl)D[Phe(3-CF3)][Phe(4-COOH)][Bip][Phe(4-COOH)][Orn][dL][Dab][Cha][Val(3-OH)]SC[Dab][PEG4]-{NH(CH2)12COOH}; thioether N-14), the IC50 is 34.9 nM.

On to `Cc1cccc(C[C@@H]2NC(=O)[C@H](CC(=O)O)NC(=O)[C@H](Cc3ccc(OCC(=O)O)cc3)NC(=O)[C@H](CN)NC(=O)CSC[C@@H](C(=O)N[C@@H](CCN)C(=O)NCCOCCOCC(=O)NCCCCCCCCCCC(=O)O)NC(=O)[C@H](C(C)O)NC(=O)[C@H](Cc3ccc(O)cc3)NC(=O)[C@H](CC3CCCCC3)NC(=O)[C@H](CCN)NC(=O)[C@@H](CC(C)C)NC(=O)[C@H](CCCN)NC(=O)[C@H](Cc3ccc(O)cc3)NC(=O)[C@H](Cc3ccc(-c4ccccc4)cc3)NC(=O)[C@H](Cc3ccc(O)cc3)NC2=O)c1` (stereo partly drawn) [Compound 2569] ({CH2CO}-[Dap]Y(Carboxymethyl)D[Phe(3-Me)]Y[Bip]Y[Orn][dL][Dab][Cha]Y[Thr(3ξ)]C[Dab][AEEA][Aun]-OH; thioether N-14), for which the half-inhibitory concentration (IC50) was found to be 80.2 nM.

(Values after patent publication US20260022142A1, “MACROCYCLIC IMMUNOMODULATORS” (Bristol-Myers Squibb Company, priority 2022, published 2026).)
